Patent US20220062340A1, “IMMUNOTHERAPEUTIC METHODS AND COMPOSITIONS” (KING'S COLLEGE LONDON, priority 2018, published 2022)

How the values were obtained:
[1] = system: integrin α4β7 on Treg surface; test: Induction of integrin α4β7 on bulk Treg surface by RARα agonists (FIG. 6); format: cell-based; details: bulk CD4+CD25+CD127− Tregs, 12 days stimulation, reducing agonist concentrations
Protocol: Bulk Tregs (CD4+CD25+CD127−) Tregs (50,000 per well) were expanded in vitro with reducing concentrations of the agonists. Culture conditions: 2 aCD3/aCD28 beads/cell, 1000IU/mL IL-2, 0.1 nM Rapamycin+Agonist in X-vivo 15. Following 12 days stimulation, cells were stained for CD4, CD25, CD127, FOXP3, Integrin a4, Integrin b7, CD15s, CD161 and acquired on a BD symphony flow cytometer. Data was analysed in Flowjo and Prism.

integrin α4β7 on Tregs = test: α4β7 expression on ex vivo expanded CD45RA+ Tregs from CD patients (flow cytometry); format: cell-based, human; details: CD4+CD25hiCD127loCD45RA+ Tregs cultured with rapamycin and high dose IL-2 plus the agonist; mean ± SD
Protocol: “Complete X-VIVO-15” (Lonza, Walkersville, MD) was used for ex vivo Treg expansion, Treg cytokine challenge experiments and Treg suppression assays. This was supplemented with 100 nM or 10 nM Rapamycin and all-trans retinoic acid (ATRA) 2 μM or 1 nM, or Rapamycin and RAR568 1 nM.
(§1) FACS-sorted Treg populations were plated at 1×10^6 or 0.5×10^6 in X-VIVO-15 medium and activated with anti-CD3/anti-CD28 coated beads (Dynabeads®, Invitrogen, Paisley, UK) at 1:1 bead: cell ratio. Rapamycin was added at day 0 of culture at a final concentration of 100 nM/L +/−ATRA 1 nM/L or RAR568 1 nM/L. Next, 1,000 IU/ml recombinant human IL-2 (rhlL-2) (Proleukin®, Novartis, Camberley, UK) was added at day 5 of culture. Cells were re-stimulated every 10-12 days and expanded for a total of 24-30 days. The phenotype and suppressive ability were assessed at the end of the culture period.
Flow cytometry panels have been designed to assess the subtypes of regulatory T cells in patients with CD as well as their expression of gut homing molecules. Gating was performed based on natural populations when assessing for CD4^+CD25^highCD127low populations, as well as for CD45RA^+ Treg populations. Additionally, to minimize bias in the assessment of expression of gut homing markers and transcription factors, a fluorochrome minus one (FMO) panel was added for each marker of interest in each experiment that was performed. […]

integrin β7 on Tregs = test: Dose response of integrin β7 induction on expanded Tregs; format: cell-based; details: Homo sapiens; Tregs in in vitro culture, FIG. 2c; read-out: EC50 to induce the expression of integrin β7
Protocol: as §1
(§2) Flow cytometry panels have been designed to assess the subtypes of regulatory T cells in patients with CD as well as their expression of gut homing molecules. Gating was performed based on natural populations when assessing for CD4^+CD25^highCD127low populations, as well as for CD45RA^+ Treg populations. Additionally, to minimize bias in the assessment of expression of gut homing markers and transcription factors, a fluorochrome minus one (FMO) panel was added for each marker of interest in each experiment that was performed.

FOXP3 in Tregs = test: FOXP3 expression of ex vivo expanded Tregs; format: cell-based, human; details: Tregs expanded in the presence of the agonist
Protocol: as §1, §2

Effector T cells (Teff) = test: Treg suppression assay (proliferation of CFSE-labelled Teff); format: cell-based, human; details: lowest (8:1) Teff:Treg titration, FIG. 2e
Protocol: Effector T cells (Teff) were labelled with carboxyfluorescein succinimidyl ester (CFSE, Invitrogen) according to standard protocols. Cells were washed with phosphate buffered saline (PBS) to remove excess protein. Cells were then incubated with a 1 μM/L CFSE solution in the dark at room temperature for 4 minutes. The reaction was then quenched with 9 ml of complete medium.
Teff were activated with anti-CD3/anti-CD28 micro beads at a bead: Teff ratio of 0.02:1. 1×10^5 Teff were then cultured either alone or with Tregs in serial dilutions. The ratios of Teff: Treg were 1:1, 2:1, 4:1, and 8:1. This was done in X-VIVO-15 and proliferation rates were assessed by flow cytometry after 5 days of incubation.
Percentage suppression (S) of proliferation was calculated using the following formula:
Where c=percentage of proliferating precursors in the presence of Tregs and d=percentage of proliferating precursors in the absence of Tregs.

Ex vivo expanded Tregs = test: IL-17 and IFNγ production under pro-inflammatory cytokine challenge (ELISA); format: cell-based, human; details: Tregs expanded ex vivo in the presence of the agonist, FIG. 2f
Protocol: Cytokine concentrations were measured using the Ready-SET-Go sandwich ELISA kits from eBioscience.
Ex vivo expanded Tregs were activated with CD3/CD28 beads at a 1:20 ratio and cultured at 10^6cells/m1 in X-VIVO for 5 days at 37° C./5% CO2, supplemented with the following cytokine cocktail: A) IL-2 (10 IU/mL, Proleukin); (B) IL-2, IL-1 (10 ng/mL), IL-6 (4 ng/mL) and transforming growth factor-β (TGF-β (5 ng/mL), IL-21 (25 ng/mL), IL-23 (25 ng/mL) (all R&D Systems). Supernatant IL-17 and interferon gamma (IFNγ) concentrations were measured by ELISA.

Tregs from CD patients = test: Gene array of expanded Tregs from CD patients; format: cell-based, human
Protocol: Gene array analyses were carried out using Partek® software with a 1-way ANOVA to assess for differential gene expression.
1) RNA extraction was performed using Qiagen RNEasy mini/micro kits as per manufacturer's instructions. The samples were checked for RNA quality using the Agilent 2100 Bioanalyzer and quantified using the Nanodrop (ND-1000 Spectrophotometer). Samples which passed QC (RIN>8) were chosen such that input amount of each sample was 3 ng.
2) SPIA cDNA was generated using the “Ovation Pico WTA System V2” kit from Nugen, following the manufacturer's instructions.
3) The SPIA cDNA was subjected to a QC check to assess quality (Agilent 2100 Bioanalyzer) and quantity (Nanodrop ND-1000 Spectrophotometer) for the next stage.
4) The SPIA cDNA was fragmented and Biotin-labelled using the “Encore Biotin Module” from Nugen according to the manufacturer's instructions and passed through QC checks to assess fragmentation size (Agilent 2100 Bioanalyzer).
6) Hybridization cocktails were prepared of the fragmented labelled-cDNA according to Nugen's recommendations and hybridized at 45° C. overnight in an oven.
7) The arrays were washed and stained using wash protocol FS450_0002 (Affymetrix protocol recommended for Human Gene 2.0 Arrays on the GeneChip Fluidics station 450.
8) The arrays were scanned using the Affymetrix GeneChip Scanner.
Gene expression analyses were performed on Tregs from CD patients expanded in the presence of Rapa+ATRA, Rapa+RAR568 or rapamycin only (n=3 in each group). […] CD161 has previously been described as a marker of T helper (Th) 17-like Tregs^32. This was not observed in the RAR568-treated group. […] IL-18 Receptor 1 and STAT4 are responsible for Th1 lineage commitment and IFNγ production, both have been independently identified as IBD disease related polymorphisms on GWAS^33-36. CD38 has been identified as a marker associated with mature T cells, signaling reduced proliferation, but an increased ability to produce pro-inflammatory cytokines such as IFNγ^37. Ligation of GPR174 negatively affects Treg accumulation and function^38. No clear difference in transcripts for canonical pathways were identified when ATRA treated cells were compared with RAR568 treated cells.
To assess for off target RARγ effects, we compared the gene expression profiles of RAR568 and ATRA treated cells to a published dataset of RARγ target genes^39. […] Given the efficacy at inducing α4β7 and lack of off target effects, RAR568 fulfilled the target product profile for an agent that could be used for ex vivo Treg expansion for cell-based therapy purposes. Therefore, we probed this effect of RAR568 on Tregs from CD patients in functional in vitro and in vivo trafficking assays.

MAdCAM-1 = test: In-vitro trafficking assay, MAdCAM-1 coated Ibidi flow chamber; format: cell-based, human; details: cells treated with monoclonal antibody to integrin α4β7, FIG. 4
Protocol: Ibidi (Martinsreid, Germany) μ-Slides VI″ were coated with recombinant human MAdCAM-1 (R&D Systems, Minneapolis, Minn.), at a concentration of 10μg/ml and incubated overnight. Cells from two CD patients that had previously undergone ex vivo expansion under two parallel conditions (Rapa and Rapa+RAR568) and had been frozen in liquid nitrogen were defrosted and rested overnight. Rested cells were then activated with rhCCL25 (R&D systems) and passed through the coated Ibidi flow chamber at a rate of 1 dyne/cm^2. The total number of cells, as well as those rolling, adherent and crawling was quantified from six randomly selected fields of view per treatment.
In order to assess the physiological relevance of the induction of α4β7 expression by RAR568, treated and untreated Tregs from CD patients were passed through a MAdCAM-1 coated flow chamber (FIG. 10). The total number of cells adherent to the chamber, as well as their stages of rolling, adhesion and crawling, were compared to cells that were expanded under standard conditions.

CC1(C)CCC(C)(C)c2cc(NC(=O)c3ccc(C(=O)O)cc3)ccc21 [AM80, tamibarotene]
induction of integrin α4β7 on Treg surface [1]: comparable effects

CC1(C)CCC(C)(C)c2cc(C(=O)Nc3ccc(C(=O)O)cc3)ccc21 [AM580]
induction of integrin α4β7 on Treg surface [1]: comparable effects

CC1=C(/C=C/C(C)=C/C=C/C(C)=C/C(=O)O)C(C)(C)CCC1 [ATRA, all-trans retinoic acid, reference compound]
α4β7 expression of expanded Tregs (integrin α4β7 on Tregs): 74.21±25.89
EC50 (integrin β7 on Tregs): 1.5 nM
FOXP3 expression of expanded Tregs (FOXP3 in Tregs; mean ± SD): 86.15±19.88%
FOXP3 expression, range (FOXP3 in Tregs; range): 40.2-99.7
Suppressive ability of expanded Tregs (Effector T cells (Teff)): became less suppressive at the lowest titration
IFNγ production following pro-inflammatory cytokine challenge (Ex vivo expanded Tregs): did not produce
IL-17 production following pro-inflammatory cytokine challenge (Ex vivo expanded Tregs): did not produce
transcripts for CD161 (Tregs from CD patients; compared to rapamycin only, n=3): significant increase
increase in the expression of STAT4, IL18R1, CD38 and GPR174 (Tregs from CD patients; compared to rapamycin only, p<0.05, FIG. 3a): > 2 fold
RARγ target genes upregulated (Tregs from CD patients; off target RARγ effects, compared to published dataset, FIG. 3b): Eleven

Vedolizumab: monoclonal antibody to integrin α4β7
cell migration of RAR568-treated Tregs in MAdCAM-1 coated flow chamber (MAdCAM-1): All stages of cell migration were blocked
